Source: patent US20250283040A1, “Methods to Expand a T Regulatory Cell Master Cell Bank” (The Trustees of the University of Pennsylvania, priority 2010, published 2025)
“And” between values parts separate entries of the source, which are not always exact repeats. Identical values can stand only once.

Legend:
Type in all cases: cell-based, human
PB nTreg [1] = test: Cell size and viability of nTreg cultures by ViCell; conditions: sort-purified nTregs stimulated with KT64/86 cells; Rapamycin 109 nM
Description: (§1) Where indicated, Rapamycin (Rapammune, Wyeth-Ayerst) at 109 nM was added on day 0 and with subsequent media supplementation. Cell size and viability were determined by ViCell (Beckman Coulter).

nTreg cultures = test: Intracellular cytokine staining after PMA/Ionomycin
Description: Fresh or frozen nTreg were cultured in supplemented X-Vivo 15 for 4 hours±PMA ([…]) and Ionomycin (1 μg/ml) in the presence of Brefeldin A (100 ng/ml) (all Sigma). Frozen/thawed samples were cultured for 1 hour at 37° C. prior to re-stimulation. Cells were then harvested and stained for CD4, 25, Foxp3 and cytokine (IL-2, IL-4, IL-17, and IFNγ) or Granzyme B using the standard Foxp3 intracellular staining kit.

PB nTreg [2] = test: Ex vivo expansion of PB nTreg cultures (fold expansion); conditions: sort-purified nTregs, first stimulation with KT64/86 cells; Rapamycin 109 nM
Description: Experiments were designed to expand Tregs isolated from adult peripheral blood. Tregs were isolated by a two step procedure in which CD4 cells were first enriched by depleting CD8, −14, and −19+ cells with GMP-grade mAb coated microbeads, followed by positive selection of CD25++ cells using GMP-grade anti-CD25 microbeads (either 75μl/2×10^8 cells, Miltenyi). Treg were subsequently expanded in vitro by repeated stimulation with CD3/28 beads or KT64/86 loaded with anti-CD3 antibody. In addition, the expansion scheme involved expanding Tregs in the presence of Rapamycin (109 nM) and restimulation based upon cell size.
For all experiments, non-mobilized peripheral blood Leukapheresis products were collected from normal adult volunteers using FDA approved/cleared apheresis instruments. Written informed consent was obtained from all subjects. nTreg were purified using GMP magnetic beads or by sorting. […]
as §1

[3] = sort-purified nTreg re-stimulated with KT64/86

CO[C@H]1C[C@@H]2CC[C@@H](C)[C@@](O)(O2)C(=O)C(=O)N2CCCC[C@H]2C(=O)O[C@H]([C@H](C)C[C@@H]2CC[C@@H](O)[C@H](OC)C2)CC(=O)[C@H](C)/C=C(\C)[C@@H](O)[C@@H](OC)C(=O)[C@H](C)C[C@H](C)/C=C/C=C/C=C/1C [Rapamycin]
Peak cell size with Rapamycin (PB nTreg [1]): 9.9 µm
% of PMA/ionomycin stimulated cells secreting IL-2, with Rapamycin (nTreg cultures; [3]): ≤ 3%
% of cells secreting IFNγ, with Rapamycin (nTreg cultures; [3]): ≤ 2%
% IL-4+ cells, start of the increase with successive re-stimulations (nTreg cultures; with Rapamycin): 8±2%
% IL-4+ cells after the last (fourth) re-stimulation (nTreg cultures; with Rapamycin, Foxp3+ and −): 58±17% and > 50%
Expansion with Rapamycin (PB nTreg [2]): 55 fold
